# Patent US7592451B2, “Treatment for diabetes and obesity as well as method of screening compounds useful for such treatments” (New York University, priority 2005, dated 2009)
# Experiments:
# rabbit muscle GAPDH = biological target: T1, rabbit muscle GAPDH (Oryctolagus cuniculus, UniProt P46406); test: In vitro GAPDH inhibition assay (NADH fluorescence); type: biochemical; settings: 0.2 mM GAP, 0.1 mM NAD+, pH 8.6; read-out: IC50 against GAPDH
# T1 construct: host or cells: rabbit muscle
# Procedure: Rabbit muscle GAPDH and glyceraldehydes-3-phosphate (GAP) were employed. The assay was performed in black polypropylene 96-well micro-titer plates using a 100 μl solution of 100 mM sodium phosphate at pH 8.6, 5 mM EDTA, 0.2 mM GAP, 0.1 mM NAD^+, 0.5 units of GAPDH in the presence of varying concentrations of compound. The reaction was initiated by addition of GAP. Amounts of produced NADH was monitored by a fluorescence plate reader, at λex=340 nm, λem=460 nm (ex=excitation, em=emission wave length) (FIG. 7).
# [1] = test system: Daf-2 mutant C. elegans strain e1370; test: Dauer formation screen in Daf-2 mutant C. elegans; type: in vivo; settings: L2 stage worms soaked in 100 μM compound, warmed to 25° C.
# Procedure: The Daf-2 mutant C. elegans strain e1370 was grown on nematode growth media (NGM) agar plates with E. coli (OP50) under standard conditions at 16° C. C. elegans mutant strains were obtained from the Caenorhabditis Genetics Center. Twenty synchronized early L2 animals grown at 16° C. were soaked in 96-well plates containing 100 μM of compounds/2% OP50 culture/M9 buffer, and then incubated at 25° C. for 4 days.
# TG-Bz library (1120 members) compounds were screened in L2 stage worms grown at 16° C. by soaking in a 100 μM chemical solution and were warmed up to 25° C., in which 100% of untreated Daf-2 mutant larvae enter dauer within 24 hours. […] E3 is the TGBz control compound (FIG. 2C).
# 3T3-L1 pre-adipocytes = test: Glucose uptake (2-NBDG) by 3T3-L1 pre-adipocytes; type: cell-based
# Procedure: To validate the relevance of this C. elegans data to a mammalian system, F43 was tested for glucose uptake in 3T3-L1 pre-adipocytes using a fluorescent derivative of glucose, 2-NBD-deoxyglucose (Moon et al., “A Novel Microtubule Destabilizing Entity from Orthogonal Synthesis of Triazine Library and Zebrafish Embryo Screening,” J. Am. Chem. Soc. 124:11608-11609 (2002), which is hereby incorporated by reference in its entirety).
# 3T3-L1 pre-adipocytes, were grown in DMEM (Dulbecco's Modified Eagle Medium Media) containing 1% antibiotics, and 10% heat-inactivated newborn calf serum under a humidified 5% CO2 atmosphere. The cells were seeded in 48-well plates and allowed to adhere to the dish overnight. Cultures at 70-80% confluence were used for the chemical exposures. […] Fluorescence intensity was measured in a fluorescence micro-plate reader at λex=466 nm and λem=540 nm.
# FIGS. 3A-B show the up-regulation of glucose uptake by 3T3-L1 pre-adipocytes upon treatment with Insulin, the TGBz compound F43, and the TGBz compound E3 as a control. […] Following incubation with the dye for 15 min. at 37° C., cells were washed with ice-cold PBS, and the fluorescence intensity was measured. The uptake of the fluorescent 2-NBDG was visualized by a Leica 2000 fluorescence microscope with excitation at 488 nm and long-pass detection at 530 nm and measured by a fluorescence microplate reader. […]
# T1 sequence (P46406 2-333 limits assumed): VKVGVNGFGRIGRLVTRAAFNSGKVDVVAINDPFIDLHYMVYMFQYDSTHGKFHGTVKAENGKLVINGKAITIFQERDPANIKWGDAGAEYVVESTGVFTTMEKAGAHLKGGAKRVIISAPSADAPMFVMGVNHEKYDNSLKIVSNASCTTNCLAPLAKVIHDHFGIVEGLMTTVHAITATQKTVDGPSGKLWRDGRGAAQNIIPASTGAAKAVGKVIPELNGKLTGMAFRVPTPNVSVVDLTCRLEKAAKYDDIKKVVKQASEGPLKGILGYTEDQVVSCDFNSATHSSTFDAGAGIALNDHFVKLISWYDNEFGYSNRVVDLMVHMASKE
structure (smiles),measurement,setting,value
O=C(NCCOCCOCCNc1nc(NCCc2ccc(O)c(O)c2)nc(Nc2ccccc2)n1)c1ccccc1 [F43],IC50,rabbit muscle GAPDH,4 µM
same,effect on dauer formation,[1],inhibits dauer formation
same,glucose uptake (2-NBDG fluorescence),"3T3-L1 pre-adipocytes; 15 min incubation, 100 μM 2-NBDG, compound up to 10 μM",dose dependent glucose uptake was observed
same,glucose uptake on co-treatment with insulin,"3T3-L1 pre-adipocytes; co-treatment with insulin (100 nM), 15 min",synergistic effect
